Earlier results, collected in PMC4061246 (Biochimica et biophysica acta, 2014).

Conditions: reported

Row | aqueous solubility [µg/mL] | Structure (SMILES)
1 | < 1 | Cc1cc(C#N)cc(C)c1Oc1nc(Nc2ccc(C#N)cc2)nc(N)c1Br [etravirine]
2 | 0.02 to 0.24 | Cc1cc(/C=C/C#N)cc(C)c1Nc1ccnc(Nc2ccc(C#N)cc2)n1 [rilpivirine]
